# From publication PMC9497102, “Thiosemicarbazone Derivatives Developed to Overcome COTI-2 Resistance” (Cancers, 2022)
# Read-outs that look alike come from different tables or passages of the source. Marks after values point to notes of the source that are not given here.
# Assays:
# [1] = tested on: GLC-4/adr cells (ABCC1-overexpressing); assay: MTT viability assay, 72 h; type: cell-based
# Procedure: (§1) In vitro tests were performed with human colorectal cancer SW480 cells (purchased from the American Type Culture Collection, Manassas, VA, USA), SW480/Tria, and the SW480/Coti cells, which are previously established sublines that are resistant to Triapine and COTI-2 [16], respectively. Additionally, small-cell lung carcinoma GLC-4 and its subline GLC-4/adr, which is a doxorubicin-resistant subline overexpressing ABCC1 (purchased from Dr. […], Groningen, The Netherlands), were used. All cells were maintained in a humidified 5% CO2 incubator at 37 °C and grown in minimal essential medium or RPMI-1640, respectively, supplemented with 10% fetal bovine serum (FBS). In order to maintain the resistant phenotype of GLC-4/adr cells, they were selected with doxorubicin (1152 nM) once a month. All cell lines were tested for mycoplasma contamination. For the cytotoxicity, cell viability, and proliferation studies, the 3-(4,5-dimethylthiazol-2-yl)-2,5-diphenyltetrazolium bromide (MTT) assay was utilized. Cells were seeded in 96-well plates at a density of 2 × 10^4 cells/well, with the exception of SW480/Tria, which was used at a density of 3 × 10^4 cells/well. After 24 h of recovery, cells were treated with the indicated concentration of drugs. For the drug combination experiments, verapamil and cyclosporine A (CSA) were used as ABCC1 modulators, and tetrathiomolybdate (TTM) was used as a copper chelator. The TSCs were dissolved in DMSO followed by subsequent dilutions in the medium in order to maintain a final DMSO concentration of <1%. After 72 h, the treatment solution was removed and replaced with 100 μL of MTT solution (EZ4U, Biomedica, Vienna, Austria), which was diluted 1:10 in the growth medium. A TECAN Infinite 200 Pro plate reader was used to measure the absorbance of the solution after 2-3 h incubation at 5% CO2 in an incubator at 37 °C. The anticancer activity was determined with GraphPad Prism software and indicated as IC50 values (half maximum inhibitory concentration).
# GLC-4 cells = assay: MTT viability assay, 72 h; type: cell-based; conditions: Homo sapiens, GLC4
# Procedure: as §1
# [2] = Parallel artificial membrane permeability assay (PAMPA); type: in vitro ADME; conditions: pH 7.4, 25 °C, read-out: Peff
# Procedure: The thermodynamic solubility of COTI-NMeCy, COTI-Nme2, COTI-NH2, and COTI-2 was measured for the saturated solutions in water at pH 7.4 (20 mM HEPES buffer) at 25.0 ± 0.1 °C. The concentrations of the compounds were determined by UV-vis spectrophotometry using stock solutions of the compounds with known concentrations dissolved in pure DMSO, and 50% and 1% (v/v) DMSO/buffered aqueous solution for the calibration. The parallel artificial membrane permeability assay (PAMPA) was applied for the ligands with a Corning Gentest pre-coated PAMPA Plate System. Peff values were calculated according to the equation reported by Yu et al..
# SW480/Coti cells [3] = assay: MTT viability assay, 72 h; type: cell-based, human; conditions: for IC50: Homo sapiens, SW480, 72 h, MTT
# Procedure: as §1
# [4] = Spectrophotometric redox reaction of copper(II) complexes with GSH or AA; type: physicochemical; conditions: 300 equiv. GSH, pH 7.4, after formation of mixed-ligand GSH adduct
# Procedure: A Hewlett Packard 8452A diode array spectrophotometer and a special, tightly closed tandem cuvette (Hellma Tandem Cell, 238-QS) were used to monitor the redox reactions of the Cu(II) and Fe(III) complexes with GSH and AA. The spectra were recorded at a physiological pH (pH = 7.4, 50 mM HEPES, I = 0.1 M KCl) when the metal complexes:GSH or AA ratio was 1:300 (ccomplex = 30 μM, cGSH or AA = 9 mM). The stock solutions of the complexes and the GSH and AA solutions were freshly prepared before every measurement. In the first half of the cuvette, the ligand was mixed with the complex, and the other contained the reducing agent. Both isolated parts of the cuvette were deoxygenated with argon for 10 min. The first spectrum was recorded before mixing, and then after mixing, the reduction was usually followed until no further absorbance change was observed.
# SW480/Coti cells [5] = assay: MTT viability assay with ABCB1/ABCC1 inhibitors verapamil and CSA; type: cell-based, human; conditions: 1 µM CSA and 10 µM verapamil, 72 h
# Procedure: For the cytotoxicity, cell viability, and proliferation studies, the 3-(4,5-dimethylthiazol-2-yl)-2,5-diphenyltetrazolium bromide (MTT) assay was utilized. Cells were seeded in 96-well plates at a density of 2 × 10^4 cells/well, with the exception of SW480/Tria, which was used at a density of 3 × 10^4 cells/well. After 24 h of recovery, cells were treated with the indicated concentration of drugs. For the drug combination experiments, verapamil and cyclosporine A (CSA) were used as […] modulators, and tetrathiomolybdate (TTM) was used as a copper chelator. The TSCs were dissolved in DMSO followed by subsequent dilutions in the medium in order to maintain a final DMSO concentration of <1%. After 72 h, the treatment solution was removed and replaced with 100 µL of MTT solution (EZ4U, Biomedica, Vienna, Austria), which was diluted 1:10 in the growth medium. A TECAN Infinite 200 Pro plate reader was used to measure the absorbance of the solution after 2–3 h incubation at 5% CO2 in an incubator at 37 °C. The anticancer activity was determined with GraphPad Prism software and indicated as IC50 values (half maximum inhibitory concentration).
# [6] = set-up: method as in PMID 33190481; conditions: after formation of mixed-ligand GSH adduct; cited from earlier work
# [7] = tested on: GLC-4/adr cells (ABCC1-overexpressing); set-up: method as in PMID 33190481; conditions: cited from earlier work
# SW480/Tria cells = tested on: SW480/Tria cells; set-up: method as in PMID 33190481; conditions: 72 h, MTT; cited from earlier work
Papp [2],IC50 (SW480/Coti cells [3]),redox reaction of the copper(II) complex with GSH [4],SMILES,IC50 [1],IC50 (GLC-4 cells),Relative Resistance SW480/Coti (SW480/Coti cells [3]; IC50 of resistant subline divided by IC50 of parental SW480),impact of verapamil and CSA on activity (SW480/Coti cells [5]),redox reaction of the copper(II) complex with GSH [6],"IC50 ([7]; 72 h, MTT)",Relative Resistance GLC-4/adr ([7]; IC50 of GLC-4/adr divided by IC50 of parental GLC-4),IC50 (SW480/Tria cells)
16 ± 0.1 ×10⁻⁶ cm/s,50 ± 30 nM,no measurable spectral changes were seen,"CN(C)C(=S)NN=C1CCCc2cccnc21 (mixture of isomers) [COTI-NMe2, 2-(6,7-Dihydroquinolin-8(5H)-ylidene)-N^4,N^4-dimethylhydrazine-1-carbothioamide]",60 ± 30 nM,30 ± 30 nM,1.3 ^n.s.,no relevant impact,,,,
,,,"S=C(N/N=C1\CCCc2cccnc21)N1CCN(c2ccccn2)CC1 [COTI-2, 4-(pyridine-2-yl)-N-([(8E)-5,6,7,8-tetrahydroquinolin-8-ylidene]amino)piperazine-1-carbothioamide]",,,,,spectra were almost unchanged within 6 h,480 ± 150 nM,17.3 *,410 ± 160 nM
,3980 ± 400 nM,no measurable spectral changes were seen,"CN(C(=S)N/N=C1\CCCc2cccnc21)C1CCCCC1 [COTI-NMeCy, N-Cyclohexyl-2-(6,7-dihydroquinolin-8(5H)-ylidene)-N^4-methylhydrazine-1-carbothioamide]",540 ± 150 nM,170 ± 100 nM,,,,,,
